# Active and inactive are the calls of the source.
# Key:
# [1] = target: T1, Short transient receptor potential channel 4 (Mus musculus, UniProt Q9QUQ5); experiment: mouse TRPC4 channel activators, dose response, cell-based, HEK293 TRPC4/mu-opioid, Fluo-4 calcium (AID 434937); assay type: functional
# T1 sequence (Q9QUQ5 whole entry): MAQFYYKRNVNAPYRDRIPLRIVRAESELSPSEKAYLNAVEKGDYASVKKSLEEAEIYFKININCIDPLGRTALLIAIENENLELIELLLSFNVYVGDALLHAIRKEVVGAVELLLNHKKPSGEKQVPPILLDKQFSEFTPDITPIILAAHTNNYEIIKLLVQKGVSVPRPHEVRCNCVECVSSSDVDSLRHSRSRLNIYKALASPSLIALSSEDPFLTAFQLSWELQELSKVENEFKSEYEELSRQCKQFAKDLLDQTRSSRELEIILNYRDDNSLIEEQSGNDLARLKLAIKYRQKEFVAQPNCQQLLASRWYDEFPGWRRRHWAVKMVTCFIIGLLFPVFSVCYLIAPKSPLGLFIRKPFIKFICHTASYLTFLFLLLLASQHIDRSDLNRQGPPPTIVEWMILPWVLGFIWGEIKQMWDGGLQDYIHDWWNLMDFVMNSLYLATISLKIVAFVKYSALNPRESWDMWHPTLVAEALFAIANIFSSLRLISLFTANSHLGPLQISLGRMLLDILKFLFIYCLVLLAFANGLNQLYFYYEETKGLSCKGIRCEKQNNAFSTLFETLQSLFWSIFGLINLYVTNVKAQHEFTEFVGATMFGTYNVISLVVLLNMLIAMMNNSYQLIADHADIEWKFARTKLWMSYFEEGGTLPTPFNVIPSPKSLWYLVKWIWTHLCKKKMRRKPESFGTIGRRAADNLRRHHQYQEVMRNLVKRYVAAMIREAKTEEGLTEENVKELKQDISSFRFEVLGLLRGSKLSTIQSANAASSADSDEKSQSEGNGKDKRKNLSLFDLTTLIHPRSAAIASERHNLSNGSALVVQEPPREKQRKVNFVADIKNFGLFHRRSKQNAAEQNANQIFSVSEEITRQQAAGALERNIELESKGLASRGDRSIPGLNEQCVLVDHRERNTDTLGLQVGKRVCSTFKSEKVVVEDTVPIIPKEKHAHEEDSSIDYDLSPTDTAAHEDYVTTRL
# Troponin, cardiac muscle = Troponin, cardiac muscle (Homo sapiens, UniProt P19429+P45379+P63316); experiment: Fluorescence-based biochemical high throughput dose response assay for activators of the calcium sensitivity of cardiac Regulated Thin Filaments (RTF). [Related pubchem assays (depositor defined):AID493008, AID493018, AID504382, AID504383]; assay type: protein-complex assay
# H4 = experiment: Luminescence Cell-Based Dose Response HTS to Identify Activators of 5'UTR Stem-Loop Driven Prion Protein mRNA Translation in H4 Neuroglioblastoma Cells. [Related pubchem assays: 1829 (Project Summary), 1814 (Primary HTS)]; assay type: functional; conditions: Homo sapiens
# HEK293 [2] = experiment: NOD1 signaling inhibitors, primary screen, cell-based, luminescence, uHTS (AID 1578); assay type: functional; conditions: Homo sapiens
# HEK293 [3] = experiment: cells; assay type: functional, cell-based; conditions: Homo sapiens
# HEK293 [4] = experiment: cells; assay type: functional, cell-based; conditions: Homo sapiens; remark: listed apart in the source
# HEK293 [5] = experiment: cells; assay type: functional, cell-based; conditions: Homo sapiens; remark: listed apart in the source
# [6] = target: Nucleotide-binding oligomerization domain-containing protein 2 (Homo sapiens, UniProt Q9HC29); experiment: NOD2 signaling inhibitors, cell-based, luminescence, uHTS, HEK293 (AID 1566); assay type: functional
# HEK293 [7] = experiment: NOD2 signaling inhibitors in MDP-stimulated cells, cell-based, uHTS, luminescence (AID 2001); assay type: functional; conditions: Homo sapiens
# [8] = target: T2, Heat shock factor protein 1 (Mus musculus, UniProt P38532); experiment: inhibition of MG132-induced HSE-luciferase signal, confirmation, cell-based, NIH3T3, luminescence, dose retest (AID 2382); assay type: functional;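 also: NIH3T3 fibroblasts with HSF1-driven luciferase reporter stressed by proteasome inhibitor MG132; luminescence from HSF1-driven luciferase expression after 8 hours of MG132 stress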
# T2 sequence (P38532 whole entry): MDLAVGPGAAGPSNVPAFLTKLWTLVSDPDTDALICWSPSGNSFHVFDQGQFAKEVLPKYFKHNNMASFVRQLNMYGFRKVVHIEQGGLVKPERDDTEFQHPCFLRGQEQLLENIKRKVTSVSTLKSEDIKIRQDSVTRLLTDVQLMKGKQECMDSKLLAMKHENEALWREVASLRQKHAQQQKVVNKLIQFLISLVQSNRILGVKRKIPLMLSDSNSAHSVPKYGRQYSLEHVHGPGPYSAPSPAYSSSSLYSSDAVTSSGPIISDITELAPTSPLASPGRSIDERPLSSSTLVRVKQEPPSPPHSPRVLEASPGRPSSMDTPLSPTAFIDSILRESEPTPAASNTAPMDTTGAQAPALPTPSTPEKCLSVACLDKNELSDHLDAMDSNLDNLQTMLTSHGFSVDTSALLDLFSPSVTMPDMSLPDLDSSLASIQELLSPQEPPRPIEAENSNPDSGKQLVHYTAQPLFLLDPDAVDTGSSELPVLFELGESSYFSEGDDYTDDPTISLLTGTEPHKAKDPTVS
# [9] = target: DNA dC->dU-editing enzyme APOBEC-3A (Homo sapiens, UniProt P31941); experiment: Dose Response confirmation of small molecule APOBEC3A DNA Deaminase Inhibitors via a fluorescence-based single-stranded DNA deaminase assay. [Related pubchem assays (depositor defined):AID493011, AID493024]; assay type: functional
# [10] = target: T3, Long-chain-fatty-acid--AMP ligase FadD28 (Mycobacterium tuberculosis, UniProt P9WQ59); experiment: Fluorescence polarization aasay to screen for inhibitors that compete for the binding of FadD28 to a bisubstrate Measured in Biochemical System Using Plate Reader - 2147-01_Inhibitor_Dose_CherryPick_Activity.; assay type: functional, Mycobacterium tuberculosis H37Rv
# T3 sequence (P9WQ59 whole entry): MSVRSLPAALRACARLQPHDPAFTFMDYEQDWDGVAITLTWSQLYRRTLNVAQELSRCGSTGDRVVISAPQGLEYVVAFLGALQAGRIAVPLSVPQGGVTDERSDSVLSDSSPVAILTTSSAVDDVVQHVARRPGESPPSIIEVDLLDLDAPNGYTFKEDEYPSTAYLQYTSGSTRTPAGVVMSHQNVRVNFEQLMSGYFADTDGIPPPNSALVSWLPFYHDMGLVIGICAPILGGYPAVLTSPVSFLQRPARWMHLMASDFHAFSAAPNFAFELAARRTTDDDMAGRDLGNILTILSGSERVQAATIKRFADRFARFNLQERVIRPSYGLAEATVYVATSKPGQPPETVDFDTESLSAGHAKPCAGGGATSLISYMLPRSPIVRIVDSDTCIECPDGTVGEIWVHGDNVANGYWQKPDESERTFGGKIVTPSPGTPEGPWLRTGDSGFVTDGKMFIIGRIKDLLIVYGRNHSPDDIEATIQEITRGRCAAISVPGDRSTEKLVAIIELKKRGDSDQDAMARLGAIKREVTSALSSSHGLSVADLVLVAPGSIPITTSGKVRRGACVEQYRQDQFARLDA
# Genome polyprotein = Genome polyprotein (dengue virus type 2, UniProt P29990); experiment: Dengue-2 NS5 methyltransferase inhibitors, primary screen, biochemical, confirmation dose response (AID 588689); assay type: functional
# Caspase-6 = target: T4, Caspase-6 (Homo sapiens, UniProt P55212); experiment: human caspase-6 inhibitors, dose response, biochemical, VEID-R110 fluorescence, cherry-pick (AID 720632)
# T4 sequence (P55212 whole entry): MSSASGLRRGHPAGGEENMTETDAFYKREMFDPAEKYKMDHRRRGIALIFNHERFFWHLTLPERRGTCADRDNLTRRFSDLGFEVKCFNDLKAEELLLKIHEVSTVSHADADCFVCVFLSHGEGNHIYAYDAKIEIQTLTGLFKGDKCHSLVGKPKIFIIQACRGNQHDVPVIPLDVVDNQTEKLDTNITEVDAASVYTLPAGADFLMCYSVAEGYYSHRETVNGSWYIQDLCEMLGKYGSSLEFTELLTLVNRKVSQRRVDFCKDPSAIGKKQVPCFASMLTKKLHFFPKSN
# [11] = target: DNA dC->dU-editing enzyme APOBEC-3G (Homo sapiens, UniProt Q9HC16); assay type: functional;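 also: Dose-response counterscreen measuring inhibition of APOBEC3G DNA deaminase activity, run while confirming APOBEC3A inhibitors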
# Streptococcus = experiment: Group A Streptococcus viability loss, dose response, counter-screen for streptokinase expression inhibitor project, luminescence, BacTiterGlo (AID 1915); assay type: functional, organism-based;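 also: potency for reduction of bacterial viability or growth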
# [12] = tested on: Streptococcus sp. 'group A'; experiment: growth inhibition of control SK(-) GAS strain, dose response, counter-screen for streptokinase expression inhibitor project, luminescence, kanamycin, BacTiterGlo, confirmation (AID 1900); assay type: functional, organism-based
# Vero [13] = experiment: cells; assay type: functional, cell-based; conditions: Chlorocebus sabaeus
# [14] = Vero E6 cell cytotoxicity, dose response, cytotoxicity control for non-replicating M. tuberculosis project, secondary assay (AID 492998); assay type: functional, VeroE6; conditions: Vero C1008
# Vero [15] = experiment: cells; assay type: functional; conditions: Chlorocebus sabaeus
# [16] = THP-1 cell cytotoxicity, dose response, cytotoxicity control for non-replicating M. tuberculosis project (AID 489025); assay type: functional
# cells = assay type: functional
compound,measurement,setting,value
CCN1CCN(c2ccc(S(=O)(=O)N3CCCCC3)cc2NC(=O)C(C)Oc2ccc(F)cc2)CC1 (centres undefined),EC50,[1],10.6 µM (active)
CC(COC(=O)c1ccccc1)(COC(=O)c1ccccc1)/[N+]([O-])=C/c1ccccc1,EC50,"Troponin, cardiac muscle",> 71.5 µM (inactive)
CCN1C(=O)/C(=C/N2CCc3ccccc32)SC1=S,EC50,"Troponin, cardiac muscle",5.4 µM (active)
same,EC50,H4,4.21 µM (active)
O=C(Nc1ccncc1)c1c(F)cccc1F,EC50,HEK293 [2],9.17 µM (active)
same,IC50,HEK293 [3],> 20 µM (inactive)
same,IC50,HEK293 [4],> 20 µM (inactive)
same,IC50,HEK293 [5],3.91 µM (active)
same,EC50,[6],4.55 µM (active)
same,IC50,HEK293 [7],4.33 µM (active)
same,EC50,[8],24.1 µM (active)
COc1ccc(-c2cc(C(=O)NCC(c3ccccc3)N(C)C)c3ccccc3n2)cc1OC (centres undefined),EC50,[1],10.6 µM (active)
O=C(CCSc1ccccc1)N1CCN(C(=O)c2ccco2)CC1,EC50,"Troponin, cardiac muscle",> 71.5 µM (inactive)
C=CCOc1ccc(C(c2c(C(=O)O)[nH]c3ccccc23)c2c(C(=O)O)[nH]c3ccccc23)cc1,IC50,[9],21.5 µM (active)
same,AC50,[10],12 µM (active)
same,IC50,Genome polyprotein,22 µM (active)
same,AC50,Caspase-6,14.2 µM (active)
same,IC50,[11],28.8 µM (active)
COc1ccc(Cl)cc1/C=C/c1ccc2cccc(O)c2n1,EC50,HEK293 [2],5.5 µM (active)
same,EC50,Streptococcus,3.58 µM (active)
same,IC50,HEK293 [3],> 20 µM (inactive)
same,IC50,HEK293 [4],> 20 µM (inactive)
same,EC50,[12],0.786 µM (active)
same,IC50,HEK293 [5],14 µM (active)
same,EC50,[6],> 20 µM (inactive)
same,IC50,HEK293 [7],4.73 µM (inactive)
c1ccc(Nc2nc(Nc3ccccc3)nc(N3CCNCC3)n2)cc1,IC50,Vero [13],> 25 µM (active)
same,CC50,[14],> 20 µM (active)
same,EC50,[1],3.35 µM (active)
same,CC50,Vero [15],22.6 µM (active)
same,CC50,[16],23 µM (active)
same,IC50,cells,26.5 µM (active)
Cc1ccc(CNC(=O)CCNC(=O)c2ccc([N+](=O)[O-])cc2)cc1,IC50,[9],6.67 µM (active)
same,IC50,[11],10.9 µM (active)
